From ChEMBL document CHEMBL5212743, “Selectivity Literature for EUbOPEN Chemogenomics Library wave 3” (2023)
Blank lines part the entries; values can stand above or below the compound they belong to.

Columns and labels:
[1] = biological target: cAMP-dependent protein kinase catalytic subunit alpha (Homo sapiens, UniProt P17612); experiment: Selectivity interaction (KinomeScan (DiscoverX)) EUB0000709a PRKACA; settings: at 100 nM
[2] = biological target: Epidermal growth factor receptor (Homo sapiens, UniProt P00533); experiment: Selectivity interaction (KinomeScan (DiscoverX)) EUB0000709a EGFR; settings: at 100 nM
[3] = biological target: T1, Phosphatidylinositol 4,5-bisphosphate 3-kinase catalytic subunit delta isoform (Homo sapiens) (UniProt O00329); experiment: Selectivity interaction (KinomeScan (DiscoverX)) EUB0000709a PIK3CD; settings: at 100 nM
T1 sequence (whole entry): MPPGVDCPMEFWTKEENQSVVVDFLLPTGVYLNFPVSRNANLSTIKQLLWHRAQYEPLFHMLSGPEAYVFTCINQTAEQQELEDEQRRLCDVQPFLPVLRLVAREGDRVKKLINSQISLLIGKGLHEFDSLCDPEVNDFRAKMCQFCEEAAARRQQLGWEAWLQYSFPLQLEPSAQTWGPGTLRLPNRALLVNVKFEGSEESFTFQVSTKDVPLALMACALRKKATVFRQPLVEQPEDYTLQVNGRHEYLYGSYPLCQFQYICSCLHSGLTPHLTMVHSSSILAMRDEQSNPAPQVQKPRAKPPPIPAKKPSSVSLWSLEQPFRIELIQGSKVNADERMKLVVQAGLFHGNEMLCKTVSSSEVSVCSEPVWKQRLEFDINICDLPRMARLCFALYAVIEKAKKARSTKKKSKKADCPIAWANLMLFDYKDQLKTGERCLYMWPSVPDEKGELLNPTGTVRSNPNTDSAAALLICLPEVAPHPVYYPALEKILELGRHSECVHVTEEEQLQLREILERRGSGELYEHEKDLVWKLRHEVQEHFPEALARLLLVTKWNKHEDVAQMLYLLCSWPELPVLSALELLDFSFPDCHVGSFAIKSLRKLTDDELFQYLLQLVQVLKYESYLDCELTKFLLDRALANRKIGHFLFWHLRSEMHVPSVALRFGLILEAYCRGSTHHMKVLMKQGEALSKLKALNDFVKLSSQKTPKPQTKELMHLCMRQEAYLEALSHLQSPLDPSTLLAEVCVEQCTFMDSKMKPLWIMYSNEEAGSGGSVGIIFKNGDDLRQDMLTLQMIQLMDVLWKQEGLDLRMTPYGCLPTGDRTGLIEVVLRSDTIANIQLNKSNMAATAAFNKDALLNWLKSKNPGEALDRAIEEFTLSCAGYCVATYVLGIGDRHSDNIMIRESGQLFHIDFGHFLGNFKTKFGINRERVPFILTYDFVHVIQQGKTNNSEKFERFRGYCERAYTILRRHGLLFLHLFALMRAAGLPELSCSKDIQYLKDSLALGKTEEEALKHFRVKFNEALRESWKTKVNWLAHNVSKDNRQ

[4] = test system: Receptor-type tyrosine-protein kinase FLT3 (Homo sapiens), P36888 [UNDEFINED MUTATION]; experiment: (§1) Selectivity interaction (KinomeScan (DiscoverX)) EUB0000701a FLT3; settings: at 1 µM
[5] = test system: T2, Receptor-type tyrosine-protein kinase FLT3 (Homo sapiens), P36888 [D835V]; experiment: as §1; settings: at 1 µM
T2 sequence (whole entry): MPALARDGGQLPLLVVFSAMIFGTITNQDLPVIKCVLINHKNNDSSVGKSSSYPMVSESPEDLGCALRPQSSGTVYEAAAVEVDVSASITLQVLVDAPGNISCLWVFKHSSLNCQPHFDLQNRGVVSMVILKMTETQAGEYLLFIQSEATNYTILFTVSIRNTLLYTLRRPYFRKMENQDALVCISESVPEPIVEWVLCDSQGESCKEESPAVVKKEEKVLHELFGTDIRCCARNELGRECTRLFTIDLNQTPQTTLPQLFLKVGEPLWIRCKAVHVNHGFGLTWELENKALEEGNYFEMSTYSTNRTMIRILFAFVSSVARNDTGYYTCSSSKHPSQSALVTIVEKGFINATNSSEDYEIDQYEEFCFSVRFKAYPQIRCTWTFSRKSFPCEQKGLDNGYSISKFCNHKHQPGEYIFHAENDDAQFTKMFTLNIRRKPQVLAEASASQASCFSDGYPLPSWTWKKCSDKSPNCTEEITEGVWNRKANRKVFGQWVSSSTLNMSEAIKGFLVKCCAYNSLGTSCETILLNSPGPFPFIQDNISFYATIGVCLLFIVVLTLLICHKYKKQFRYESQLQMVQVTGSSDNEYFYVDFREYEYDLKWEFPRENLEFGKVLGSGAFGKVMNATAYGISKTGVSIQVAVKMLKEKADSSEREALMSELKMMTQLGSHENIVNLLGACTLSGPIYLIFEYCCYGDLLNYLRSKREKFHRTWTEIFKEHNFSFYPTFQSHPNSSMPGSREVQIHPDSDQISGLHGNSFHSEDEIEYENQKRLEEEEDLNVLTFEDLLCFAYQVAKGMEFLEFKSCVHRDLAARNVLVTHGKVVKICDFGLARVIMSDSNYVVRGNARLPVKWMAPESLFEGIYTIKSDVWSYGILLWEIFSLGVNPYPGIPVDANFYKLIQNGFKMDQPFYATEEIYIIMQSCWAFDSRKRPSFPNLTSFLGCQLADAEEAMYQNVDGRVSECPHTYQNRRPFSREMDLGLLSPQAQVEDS

[6] = biological target: T3, Dual specificity mitogen-activated protein kinase kinase 5 (Homo sapiens) (UniProt Q13163); experiment: Selectivity interaction (KinomeScan (DiscoverX)) EUB0000701a MAP2K5; settings: at 1 µM
T3 sequence (whole entry): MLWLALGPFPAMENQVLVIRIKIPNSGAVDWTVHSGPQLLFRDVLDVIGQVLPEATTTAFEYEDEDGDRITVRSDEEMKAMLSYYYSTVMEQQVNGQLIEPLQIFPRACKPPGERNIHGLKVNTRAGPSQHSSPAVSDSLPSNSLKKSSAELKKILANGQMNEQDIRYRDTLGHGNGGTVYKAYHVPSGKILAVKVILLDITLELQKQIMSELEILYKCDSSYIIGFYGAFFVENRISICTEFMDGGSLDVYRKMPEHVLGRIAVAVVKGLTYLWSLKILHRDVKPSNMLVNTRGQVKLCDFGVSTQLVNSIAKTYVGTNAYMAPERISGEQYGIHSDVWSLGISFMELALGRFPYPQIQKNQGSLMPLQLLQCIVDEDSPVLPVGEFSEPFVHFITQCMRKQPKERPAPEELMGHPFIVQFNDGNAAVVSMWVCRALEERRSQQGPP

[7] = biological target: Inhibitor of nuclear factor kappa-B kinase subunit epsilon (Homo sapiens) (UniProt Q14164); settings: at 1 µM
[8] = biological target: T4, Mitogen-activated protein kinase kinase kinase 19 (Homo sapiens) (UniProt Q56UN5); experiment: Selectivity interaction (KinomeScan (DiscoverX)) EUB0000701a MAP3K19; settings: at 1 µM
T4 sequence (whole entry): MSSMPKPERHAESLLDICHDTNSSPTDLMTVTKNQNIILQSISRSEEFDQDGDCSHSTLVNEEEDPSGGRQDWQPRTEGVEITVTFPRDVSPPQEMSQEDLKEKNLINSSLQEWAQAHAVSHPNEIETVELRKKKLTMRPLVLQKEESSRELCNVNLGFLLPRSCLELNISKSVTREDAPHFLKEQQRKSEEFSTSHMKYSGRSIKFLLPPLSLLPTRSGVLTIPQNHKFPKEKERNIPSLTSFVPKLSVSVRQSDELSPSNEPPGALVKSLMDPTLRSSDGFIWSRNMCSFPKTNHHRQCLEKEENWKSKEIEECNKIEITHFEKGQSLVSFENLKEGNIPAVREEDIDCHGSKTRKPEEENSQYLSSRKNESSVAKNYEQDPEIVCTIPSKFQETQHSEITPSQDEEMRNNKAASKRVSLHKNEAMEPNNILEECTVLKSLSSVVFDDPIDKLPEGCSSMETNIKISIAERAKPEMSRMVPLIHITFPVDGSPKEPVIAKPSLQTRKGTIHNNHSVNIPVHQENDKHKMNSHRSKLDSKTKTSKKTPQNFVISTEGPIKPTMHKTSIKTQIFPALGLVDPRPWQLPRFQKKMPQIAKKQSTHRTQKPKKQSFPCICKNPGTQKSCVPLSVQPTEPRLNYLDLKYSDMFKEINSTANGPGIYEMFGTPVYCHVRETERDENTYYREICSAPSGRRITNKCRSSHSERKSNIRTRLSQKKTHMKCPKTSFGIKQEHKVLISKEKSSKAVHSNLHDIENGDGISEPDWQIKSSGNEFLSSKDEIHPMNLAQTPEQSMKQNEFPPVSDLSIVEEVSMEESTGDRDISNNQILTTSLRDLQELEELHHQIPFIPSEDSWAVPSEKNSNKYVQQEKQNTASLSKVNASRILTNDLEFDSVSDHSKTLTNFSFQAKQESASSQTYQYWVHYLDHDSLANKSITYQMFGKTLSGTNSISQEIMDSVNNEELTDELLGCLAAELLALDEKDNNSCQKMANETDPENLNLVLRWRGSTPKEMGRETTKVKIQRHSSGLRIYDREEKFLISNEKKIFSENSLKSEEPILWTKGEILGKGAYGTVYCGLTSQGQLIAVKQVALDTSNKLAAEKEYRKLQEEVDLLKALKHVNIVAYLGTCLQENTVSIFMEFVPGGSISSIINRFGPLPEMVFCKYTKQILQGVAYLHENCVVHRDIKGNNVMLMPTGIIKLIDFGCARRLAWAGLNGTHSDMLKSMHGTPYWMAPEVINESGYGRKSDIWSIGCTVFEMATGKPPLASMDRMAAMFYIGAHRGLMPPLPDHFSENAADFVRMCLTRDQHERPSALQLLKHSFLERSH

[9] = biological target: Tyrosine-protein kinase ABL1 (Homo sapiens, UniProt P00519); experiment: Selectivity interaction (KinomeScan (DiscoverX)) EUB0000701a ABL1; settings: at 1 µM
[10] = biological target: T3, Dual specificity mitogen-activated protein kinase kinase 5 (Homo sapiens); experiment: Selectivity interaction (ScanMAX (DiscoverX)) EUB0000700a MAP2K5; settings: at 10 µM
[11] = biological target: Transcription initiation factor TFIID subunit 1 (Homo sapiens, UniProt P21675); experiment: Selectivity interaction (Bromoscan (DiscoverX, BromoKdELECT)) EUB0000004c TAF1; settings: at 10 µM
[12] = biological target: T5, Chromatin remodeling regulator CECR2 (Homo sapiens, UniProt Q9BXF3); experiment: Selectivity interaction (Bromoscan (DiscoverX, BromoKdELECT)) EUB0000004c CECR2; settings: at 10 µM
T5 sequence (Q9BXF3 whole entry, looked up): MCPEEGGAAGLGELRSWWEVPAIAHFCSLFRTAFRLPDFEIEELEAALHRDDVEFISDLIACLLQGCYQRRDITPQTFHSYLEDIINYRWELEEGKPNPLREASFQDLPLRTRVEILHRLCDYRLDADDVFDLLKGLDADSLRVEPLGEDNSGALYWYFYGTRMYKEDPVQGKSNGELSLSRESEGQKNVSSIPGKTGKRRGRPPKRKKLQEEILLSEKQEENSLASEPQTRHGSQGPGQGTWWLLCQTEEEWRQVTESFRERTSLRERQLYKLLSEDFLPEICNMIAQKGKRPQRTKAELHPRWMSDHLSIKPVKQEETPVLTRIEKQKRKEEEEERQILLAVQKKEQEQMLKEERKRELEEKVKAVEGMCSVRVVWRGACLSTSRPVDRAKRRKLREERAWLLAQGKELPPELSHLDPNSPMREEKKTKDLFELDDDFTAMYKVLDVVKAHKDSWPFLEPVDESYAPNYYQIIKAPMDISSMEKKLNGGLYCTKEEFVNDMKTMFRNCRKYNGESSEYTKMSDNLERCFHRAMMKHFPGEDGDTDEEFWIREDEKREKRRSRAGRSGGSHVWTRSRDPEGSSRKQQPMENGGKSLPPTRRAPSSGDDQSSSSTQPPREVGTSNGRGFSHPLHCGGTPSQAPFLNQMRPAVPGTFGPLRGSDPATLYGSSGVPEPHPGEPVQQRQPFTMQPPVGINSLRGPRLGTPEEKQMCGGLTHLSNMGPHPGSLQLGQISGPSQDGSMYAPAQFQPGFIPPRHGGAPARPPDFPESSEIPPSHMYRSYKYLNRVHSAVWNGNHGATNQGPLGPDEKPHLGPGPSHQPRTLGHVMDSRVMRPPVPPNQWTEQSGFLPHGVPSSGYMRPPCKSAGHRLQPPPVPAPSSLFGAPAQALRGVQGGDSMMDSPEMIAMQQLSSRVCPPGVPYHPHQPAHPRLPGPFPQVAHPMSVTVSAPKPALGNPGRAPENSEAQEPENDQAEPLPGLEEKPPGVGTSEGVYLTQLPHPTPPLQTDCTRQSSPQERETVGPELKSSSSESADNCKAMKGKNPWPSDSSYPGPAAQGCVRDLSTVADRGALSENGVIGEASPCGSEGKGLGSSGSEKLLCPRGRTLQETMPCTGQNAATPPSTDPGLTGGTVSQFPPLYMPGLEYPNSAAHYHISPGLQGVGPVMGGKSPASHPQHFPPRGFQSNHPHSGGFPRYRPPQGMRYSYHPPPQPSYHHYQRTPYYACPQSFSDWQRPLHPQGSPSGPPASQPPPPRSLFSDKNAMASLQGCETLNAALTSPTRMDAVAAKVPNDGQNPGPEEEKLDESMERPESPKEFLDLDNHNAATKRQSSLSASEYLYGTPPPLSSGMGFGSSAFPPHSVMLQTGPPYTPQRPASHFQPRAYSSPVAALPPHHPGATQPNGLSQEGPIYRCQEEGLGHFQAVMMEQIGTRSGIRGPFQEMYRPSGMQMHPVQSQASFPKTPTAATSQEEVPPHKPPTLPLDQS

CREB-binding protein = CREB-binding protein (Homo sapiens, UniProt Q92793); experiment: Selectivity interaction (Bromoscan (DiscoverX, BromoKdELECT)) EUB0000004c CREBBP; settings: at 10 µM
CREB-binding protein, sequence (Q92793 2-2442 limits assumed): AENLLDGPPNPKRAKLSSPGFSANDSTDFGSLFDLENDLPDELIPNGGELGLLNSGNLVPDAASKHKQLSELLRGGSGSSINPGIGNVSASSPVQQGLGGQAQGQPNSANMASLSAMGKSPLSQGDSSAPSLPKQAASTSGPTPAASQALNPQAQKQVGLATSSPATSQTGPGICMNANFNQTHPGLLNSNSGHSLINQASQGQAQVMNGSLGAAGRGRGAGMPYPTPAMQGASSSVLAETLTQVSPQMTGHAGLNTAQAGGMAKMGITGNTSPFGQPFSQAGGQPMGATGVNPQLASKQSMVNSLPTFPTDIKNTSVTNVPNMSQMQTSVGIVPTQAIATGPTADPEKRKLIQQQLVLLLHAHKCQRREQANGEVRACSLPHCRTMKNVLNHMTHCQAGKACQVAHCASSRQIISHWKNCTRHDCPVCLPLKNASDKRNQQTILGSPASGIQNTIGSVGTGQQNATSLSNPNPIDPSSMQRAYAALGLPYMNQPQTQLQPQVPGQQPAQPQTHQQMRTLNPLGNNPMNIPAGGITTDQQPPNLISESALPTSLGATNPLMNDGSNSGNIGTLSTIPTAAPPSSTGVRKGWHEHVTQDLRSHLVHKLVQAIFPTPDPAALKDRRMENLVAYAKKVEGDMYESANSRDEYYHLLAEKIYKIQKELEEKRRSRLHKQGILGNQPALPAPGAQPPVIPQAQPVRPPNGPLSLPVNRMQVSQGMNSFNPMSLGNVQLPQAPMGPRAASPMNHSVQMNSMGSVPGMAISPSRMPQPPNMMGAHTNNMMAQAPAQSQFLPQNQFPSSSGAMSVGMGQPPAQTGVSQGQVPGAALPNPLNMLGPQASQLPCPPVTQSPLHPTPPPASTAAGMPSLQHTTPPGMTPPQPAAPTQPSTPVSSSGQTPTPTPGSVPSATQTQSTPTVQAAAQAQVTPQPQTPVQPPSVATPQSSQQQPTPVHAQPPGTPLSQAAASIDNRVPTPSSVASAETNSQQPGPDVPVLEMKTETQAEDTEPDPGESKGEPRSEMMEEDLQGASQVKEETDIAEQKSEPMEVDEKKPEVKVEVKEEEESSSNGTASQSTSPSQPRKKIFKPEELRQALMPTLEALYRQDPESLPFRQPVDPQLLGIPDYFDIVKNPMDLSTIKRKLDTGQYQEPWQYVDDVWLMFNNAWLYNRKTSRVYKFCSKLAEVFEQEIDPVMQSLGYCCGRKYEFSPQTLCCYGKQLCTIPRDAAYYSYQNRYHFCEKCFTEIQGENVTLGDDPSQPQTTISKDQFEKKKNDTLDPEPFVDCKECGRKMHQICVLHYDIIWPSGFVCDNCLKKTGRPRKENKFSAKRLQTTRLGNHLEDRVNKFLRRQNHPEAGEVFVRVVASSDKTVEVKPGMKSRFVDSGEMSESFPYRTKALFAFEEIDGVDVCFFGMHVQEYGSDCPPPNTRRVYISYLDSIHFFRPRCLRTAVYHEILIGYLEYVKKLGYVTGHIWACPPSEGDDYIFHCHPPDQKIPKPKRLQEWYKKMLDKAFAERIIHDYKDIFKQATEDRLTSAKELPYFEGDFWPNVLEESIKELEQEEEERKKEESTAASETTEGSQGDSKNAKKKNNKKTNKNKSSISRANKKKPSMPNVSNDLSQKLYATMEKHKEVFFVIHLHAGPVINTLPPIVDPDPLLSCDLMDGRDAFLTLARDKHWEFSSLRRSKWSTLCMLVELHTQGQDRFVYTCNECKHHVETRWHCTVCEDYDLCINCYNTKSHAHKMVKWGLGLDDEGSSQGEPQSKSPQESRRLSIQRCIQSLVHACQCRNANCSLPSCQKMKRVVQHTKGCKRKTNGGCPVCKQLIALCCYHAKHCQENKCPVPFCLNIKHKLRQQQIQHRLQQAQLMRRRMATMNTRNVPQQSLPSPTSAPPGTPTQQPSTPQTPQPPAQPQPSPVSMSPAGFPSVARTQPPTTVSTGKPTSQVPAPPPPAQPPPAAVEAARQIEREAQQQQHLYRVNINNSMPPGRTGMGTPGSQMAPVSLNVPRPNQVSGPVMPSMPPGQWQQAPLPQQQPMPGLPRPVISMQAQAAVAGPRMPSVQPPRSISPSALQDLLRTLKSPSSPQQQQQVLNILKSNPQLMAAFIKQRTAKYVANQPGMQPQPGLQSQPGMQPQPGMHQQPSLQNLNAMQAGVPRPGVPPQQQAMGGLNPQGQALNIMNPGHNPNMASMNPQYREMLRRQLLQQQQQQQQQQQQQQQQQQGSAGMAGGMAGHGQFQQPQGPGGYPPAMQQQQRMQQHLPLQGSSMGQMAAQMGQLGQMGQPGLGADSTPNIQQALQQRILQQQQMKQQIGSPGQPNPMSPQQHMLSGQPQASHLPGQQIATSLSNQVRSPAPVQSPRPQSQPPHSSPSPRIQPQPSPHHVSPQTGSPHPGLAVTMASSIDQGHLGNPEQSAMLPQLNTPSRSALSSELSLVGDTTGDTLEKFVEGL

[13] = biological target: T5, Chromatin remodeling regulator CECR2; experiment: Selectivity interaction (Bromodomain panel (DSF assay)) EUB0000004c CECR2
[14] = biological target: Bromodomain-containing protein 9 (Homo sapiens) (UniProt Q9H8M2); experiment: Selectivity interaction (Bromodomain panel (DSF assay)) EUB0000004c BRD9
[15] = biological target: T6, Bromodomain-containing protein 7 (Homo sapiens) (UniProt Q9NPI1); experiment: Selectivity interaction (Bromodomain panel (DSF assay)) EUB0000004c BRD7
T6 sequence (whole entry): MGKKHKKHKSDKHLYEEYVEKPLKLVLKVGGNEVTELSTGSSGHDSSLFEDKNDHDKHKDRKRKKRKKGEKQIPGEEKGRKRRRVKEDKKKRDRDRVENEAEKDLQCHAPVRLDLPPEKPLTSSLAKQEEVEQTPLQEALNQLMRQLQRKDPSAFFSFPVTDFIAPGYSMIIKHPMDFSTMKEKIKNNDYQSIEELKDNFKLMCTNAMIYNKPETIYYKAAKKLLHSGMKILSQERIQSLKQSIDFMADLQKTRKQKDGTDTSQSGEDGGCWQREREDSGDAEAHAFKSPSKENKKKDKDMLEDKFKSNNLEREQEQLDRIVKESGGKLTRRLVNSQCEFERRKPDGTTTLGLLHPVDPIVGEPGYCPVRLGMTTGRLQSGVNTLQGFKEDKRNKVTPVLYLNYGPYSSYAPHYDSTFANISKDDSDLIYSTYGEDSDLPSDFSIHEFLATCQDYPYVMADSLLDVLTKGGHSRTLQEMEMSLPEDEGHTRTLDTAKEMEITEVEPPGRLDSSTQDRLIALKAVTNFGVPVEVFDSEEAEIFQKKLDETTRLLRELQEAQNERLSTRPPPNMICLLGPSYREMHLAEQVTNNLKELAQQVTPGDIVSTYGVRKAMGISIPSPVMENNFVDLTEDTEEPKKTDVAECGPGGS

[16] = biological target: Hepatocyte growth factor receptor (Homo sapiens) (UniProt P08581); settings: at 1 µM
[17] = biological target: Mitogen-activated protein kinase kinase kinase kinase 2 (Homo sapiens) (UniProt Q12851); settings: at 1 µM
Mitogen-activated protein kinase kinase kinase kinase 2 (Homo sapiens), sequence (Q12851 whole entry): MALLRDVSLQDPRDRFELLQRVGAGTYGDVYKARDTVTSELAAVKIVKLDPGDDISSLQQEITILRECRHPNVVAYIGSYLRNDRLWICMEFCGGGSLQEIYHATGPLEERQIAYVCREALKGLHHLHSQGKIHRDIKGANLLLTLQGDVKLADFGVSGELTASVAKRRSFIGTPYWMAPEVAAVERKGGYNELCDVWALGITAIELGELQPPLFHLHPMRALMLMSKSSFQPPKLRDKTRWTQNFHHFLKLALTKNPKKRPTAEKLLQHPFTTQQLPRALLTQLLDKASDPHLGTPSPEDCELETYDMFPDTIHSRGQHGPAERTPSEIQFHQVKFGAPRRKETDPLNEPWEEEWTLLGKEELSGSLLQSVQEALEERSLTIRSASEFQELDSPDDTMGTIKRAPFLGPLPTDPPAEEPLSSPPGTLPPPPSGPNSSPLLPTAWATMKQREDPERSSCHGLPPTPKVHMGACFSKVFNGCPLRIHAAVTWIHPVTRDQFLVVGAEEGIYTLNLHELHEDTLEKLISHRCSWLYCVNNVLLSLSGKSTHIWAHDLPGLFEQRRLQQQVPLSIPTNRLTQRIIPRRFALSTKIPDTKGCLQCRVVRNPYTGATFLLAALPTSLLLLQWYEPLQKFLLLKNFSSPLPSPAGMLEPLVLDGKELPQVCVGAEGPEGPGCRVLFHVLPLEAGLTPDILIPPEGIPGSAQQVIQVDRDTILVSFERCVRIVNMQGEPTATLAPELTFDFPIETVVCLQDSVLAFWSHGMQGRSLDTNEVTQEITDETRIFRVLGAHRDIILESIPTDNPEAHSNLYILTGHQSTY

SMILES: Cn1cc(Cl)c2c(Oc3c(F)cc(Nc4cc(Cl)nc(N)n4)cc3F)ccnc21
% of control [1]: 28%
% of control [2]: 52%
% of control [3]: 51%

SMILES: C[C@H](NC(=O)Nc1cc2[nH]ncc2c(CO)n1)c1ccccn1
% of control [10]: 17.6%

SMILES: COc1cc(-c2cn(C)c(=O)c3cnccc23)c(OC)cc1CN(C)C
% of control [11]: 8.4%
% of control [12]: 0%
% of control (CREB-binding protein): 7.2%
dTm [13]: 5.61 K
dTm [14]: 9.21 K
dTm [15]: 6.47 K

Results, then the compound that gave them:

% of control [4]: 15%
% of control [5]: 7%
% of control [6]: 1.8%
% of control [7]: 13%
% of control [8]: 15%
% of control [9]: 4.2%
SMILES: CN(C)c1ncnc(-c2ccc3nc(Nc4cc(CN5CCN(C(=O)CC(F)(F)F)CC5)ccn4)[nH]c3c2)c1Cl

% of inhibition [16]: 86%
% of inhibition [17]: 99%
SMILES: C[C@]1(O)C[C@@H](c2nc(-c3ccc4ccc(-c5ccccc5)nc4c3)c3c(N)nccn32)C1
